Where two headings read alike, the source gives them in different places.
Tests used:
CDV = details: read-out: EC50, CDV; plaque reduction method; cited from earlier work
TGEV = format: cell-based, transmissible gastroenteritis virus of swine; details: read-out: EC50, TGEV
FluV A [1] = details: read-out: EC50, FluV A; MTT method; cited from earlier work
[2] = test system: FluV A R-1 (HA Lys189Asn, Ile202Thr); details: read-out: EC50, MTT; strain R-1; cited from earlier work
[3] = test system: FluV A (N3H2/Ishikawa and H1N1/PR8); details: rhodamine-labeled virus, MDCK cells; 10 and 25 μM; cited from earlier work
[4] = test system: FluV A R-4 (HA Ile202Thr); details: read-out: EC50, Plaque reduction; strain R-4; cited from earlier work
[5] = test system: FluV A R-4 (HA Ile202Thr); details: read-out: EC50, MTT; strain R-4; cited from earlier work
[6] = test system: FluV A R-c (HA Lys189Asn, Ile202Val); details: read-out: EC50, MTT; strain R-c; cited from earlier work
SARS-V = format: cell-based, SARS coronavirus; details: read-out: EC50, SARS-V
PfluV 2 = details: read-out: EC50, PfluV 2; MTT method; cited from earlier work
FluV A [7] = details: read-out: EC50 against FluV A; cited from earlier work
RSV = details: read-out: EC50, RSV; MTT method; cited from earlier work
[8] = test system: FluV A R-b (HA Lys189Asn); details: read-out: EC50, MTT; strain R-b; cited from earlier work
FIPV = format: cell-based, feline infectious peritonitis virus; details: read-out: EC50, FIPV
HIV-1 = details: read-out: EC50, HIV-1; MTT method; cited from earlier work
[9] = test system: FluV A R-2 (HA Ile202Thr); details: read-out: EC50, Plaque reduction; strain R-2; cited from earlier work
[10] = test system: Ishikawa/AH3N2/(plaque purified) strain; details: read-out: EC50, Plaque reduction; Parent strain; cited from earlier work
[11] = test system: FluV A R-c (HA Lys189Asn, Ile202Val); details: read-out: EC50, Plaque reduction; strain R-c; cited from earlier work
FluV A (H1N1/PR8) = details: cited from earlier work
[12] = test system: FluV A R-2 (HA Ile202Thr); details: read-out: EC50, MTT; strain R-2; cited from earlier work
[13] = test system: Ishikawa/AH3N2/(plaque purified) strain; details: read-out: EC50, MTT; Parent strain; cited from earlier work
[14] = test system: FluV A R-1 (HA Lys189Asn, Ile202Thr); details: read-out: EC50, Plaque reduction; strain R-1; cited from earlier work
DFV = details: cited from earlier work
MDCK cells = details: cited from earlier work
[15] = test system: FluV A R-b (HA Lys189Asn); details: read-out: EC50, Plaque reduction; strain R-b; cited from earlier work

(iPrNH3)6H[PTi2W10O38(O2)2]H2O [PM-523]
EC50 (CDV): 7.3 ± 1.1 µM
EC50 (TGEV): 2.5 ± 0.6 µM
EC50 (FluV A [1]): 5.6 ± 2 µM
EC50 [2]: 71.4 ± 6.8 µM
dequenching of fluorescence (fusion of FluV A envelope with cell membrane) [3]: remarkably reduced
EC50 [4]: 88.1 ± 9.9 µM
EC50 [5]: 79 ± 10.2 µM
EC50 [6]: 80.3 ± 6.8 µM
EC50 (SARS-V): > 50 µM
EC50 (PfluV 2): 2.5 ± 1.3 µM
EC50 (FluV A [7]): 2.4 µM
EC50 (RSV): 1.3 ± 0.5 µM
EC50 [8]: 63 ± 7 µM
EC50 (FIPV): > 32 µM
EC50 (HIV-1): 0.3 ± 0.1 µM
EC50 [9]: 73.6 ± 10.8 µM
EC50 [10]: 6.6 ± 0.8 µM
EC50 [11]: 78.9 ± 9.4 µM
appearance of lungs of infected mice (FluV A (H1N1/PR8); 2.4 mM PM-523 alone, data not shown): swollen and reddened due to congestion
mice survived on the 9th day (FluV A (H1N1/PR8); 4.8 mM PM-523 aerosol every 12 hours for 4 days, 10 LD50 FluV A): half
survival at 14 days after the infection (FluV A (H1N1/PR8); 4.8 mM PM-523 alone): 20%
EC50 [12]: 67.8 ± 6.5 µM
EC50 [13]: 8.7 ± 1.2 µM
EC50 [14]: 74.5 ± 10.2 µM
antiviral activity against DFV (DFV): did not have antiviral activities
EC50 (DFV; read-out: EC50, DFV, MTT method): > 61.5 µM
Percent viability of cells (MDCK cells; single compound at 100 μM, untreated cells = 100%): 81.1 ± 2.9%
Percent viability of cells (MDCK cells; single compound at 200 μM): 89.3 ± 5.8%
Percent viability of cells (MDCK cells; single compound at 400 μM): 85.2 ± 3.5%
EC50 [15]: 66.7 ± 6.2 µM
